Results published in patent US8791079B2, “Methods for treating heart failure by inhibiting the mitochondrial sodium-calcium exchanger (mNCE)” (priority 2009, dated 2014).
Read-outs that look alike come from different tables or passages of the source.

Key:
[1] = system: HF patients; settings: cited from earlier work; for mortality: post hoc analysis of DIG trial
[2] = system: Guinea pig hearts; test: Hemodynamics of isolated perfused hearts (Langendorff); settings: 25-nM isoproterenol in ouabain-treated hearts, absence (isoproterenol) or presence of CGP-37157
Text: (§1) Guinea pig hearts were quickly excised under anesthesia and mounted on a modified Langendorff apparatus attached to a Powerlab system (AD Instruments, Colorado Springs, Colo.). Hearts were perfused with gassed (95/5% O2/CO2) control buffer containing: 118-mM NaCl, 24-mM NaHCO3, 1.2-mM KH2PO4, 4.75-mM KCl, 1.2-mM MgSO4, 2.0-mM CaCl2, and 10-mM glucose. A buffer-filled latex balloon (Harvard apparatus) was inserted through the mitral valve into the left ventricle. Hearts were suspended in a buffer-filled heating chamber maintained at 37° C. and two electrodes were placed into the bath for volume-conducted electrocardiogram recordings. Heart rate, left ventricular developed pressure (LVDP), maximal rates of contraction and relaxation (±dP/dt), oxygen consumption, and electrocardiograms (ECG) were recorded on a computer. After a ten-minute equilibration period, hearts were subjected to the following protocol: ten-minute baseline recording while the heart was perfused with control buffer, ten-minute recording while 0.25-μM ouabain with or without 1 μM CGP-37157, and sixty-minute recording while hearts were stimulated with 25-nM isoproterenol. The measurements of hemodynamic parameters were determined by taking the average during the last two minutes before ouabain treatment (baseline) and for two minutes during the maximal effect on LVDP of either ouabain or isoproterenol.
In Table 1A-1C, hemodynamics of isolated perfused hearts were recorded at baseline, with ouabain treatment (1 μM), and with ouabain plus isoproterenol (100 nM) stimulation with or without CGP-37157 (1 μM). HR, heart rate; LVDP, left ventricular developed pressure; Oua: ouabain; CGP: CGP-37157; VF: ventricular fibrillation. *p<0.05 compared to group without CGP; † p<0.05 compared to baseline.

[3] = system: Guinea pig hearts; test: Oxygen consumption in isolated perfused hearts; settings: ouabain followed by isoproterenol, without (isoproterenol) or with CGP-37157
Text: as §1
Cardiac O2 concentration was measured with an O2 probe attached to a PowerLab system (AD Instruments). The probe was calibrated with 95% O2-saturated buffer as 100% and 100% N2-saturated buffer as 0%. The molar concentration of O2 consumption was calculated from percentage concentration with the following equation: VO2(μmol/min/g dwt)=CF×(0.02373/22.414)×((760−p)/760)×(ΔO2%/100)/dwt
where CF is coronary flow (mL/min); 0.02373 is the absorption coefficient of O2 in H2O at 37° C.; 22.414 is the volume (L) of 1 mol gas at STP; 760 is 1 atm in mm Hg; p equals 47.067, which is the vapor pressure of H2O at 37° C.; ΔO2% is the difference in O2 percentage concentration between inflow buffer collected from cannula before heart was mounted and outflow buffer collected from pulmonary artery; dwt is dry heart weight.

| Compound | overall mortality ([1]; DIG trial, HF patients) | mortality ([1]; SDC ≧1.0 ng/mL) | mortality ([1]; serum digoxin concentration (SDC) 0.5-0.9 ng/mL) | increase of +dP/dt compared to the level with ouabain treatment [2] | increase of LVDP compared to the level with ouabain treatment [2] | increase of heart rate (HR) compared to the level with ouabain treatment [2] | increase of −dP/dt compared to the level with ouabain treatment [2] | increase of whole-heart oxygen consumption (VO2) compared to baseline [3] |
| --- | --- | --- | --- | --- | --- | --- | --- | --- |
| C[C@H]1O[C@@H](OC2[C@@H](O)C[C@H](OC3[C@@H](O)CC(O[C@H]4CC[C@@]5(C)[C@H](CC[C@@H]6[C@@H]5C[C@@H](O)[C@]5(C)[C@@H](C7=CC(=O)OC7)CC[C@]65O)C4)O[C@@H]3C)O[C@@H]2C)C[C@H](O)C1O (stereo in doubt) [digoxin, 4-[(3S,5R,8R,9S,10S,12R,13S,14S)-3-[(2S,4S,5R,6R)-5-[(2S,4S,5R,6R)-5-[(2S,4S,5R,6R)-4,5-dihydroxy-6-methyl-oxan-2-yl]oxy-4-hydroxy-6-methyl-oxan-2-yl]oxy-4-hydroxy-6-methyl-oxan-2-yl]oxy-12,14-dihydroxy-10,13-dimethyl-1,2,3,4,5,6,7,8,9,11,12,15,16,17-tetradecahydrocyclopenta[a]phenanthren-17-yl]-5H-furan-2-one] | did not affect overall mortality | no effect on mortality | reduced mortality of all HF patients | – | – | – | – | – |
| CC(C)NCC(O)c1ccc(O)c(O)c1 (centres unmarked) [isoproterenol, 4-[1-hydroxy-2-(isopropylamino)ethyl]benzene-1,2-diol, reference compound] | – | – | – | 57% | not increased further | 28% | 52% | 25% |
